Measured values as given in patent US20170319611A1, “METHODS AND COMPOSITIONS COMPRISING AKT INHIBITORS AND/OR PHOSPHOLIPASE D INHIBITORS” (Vanderbilt University, priority 2012, published 2017).

Experiments:
LC3 and p62 = experiment: Autophagy marker immunoblot (LC3-II, p62), U87MG cells; type: cell-based, human; conditions: for LC3-II levels relative to vehicle control: serum-free DMEM, 10 nM bafilomycin A1, 10 μM EVJ, 5 μM JWJ or 10 μM MK2206 for 6 h; for accumulation of LC3-II in the presence of bafilomycin A1: 10 nM bafilomycin A1 30 min, then inhibitor 6 h
Protocol: Lysates were prepared by incubating cell pellets in lysis buffer (see immunoprecipitation procedure) for 30 minutes at 4° C. Protein concentrations were measuring using the Bio-Rad protein assay reagent. The antibodies used in the various studies as described herein, along with their vendors and catalog numbers are provided in Table 3.
In addition to apoptosis, cells undergo another type of programmed cell death requiring autophagy (Tsujimoto and Shimizu, (2005) Cell Death Differ. 12 Suppl 2, 1528-1534), a process known to be stimulated by nutrient or growth factor deprivation (Kroemer, G. et al., (2010) Mol. Cell 40, 280-293). Autophagy is a multistep process involving formation of double-membrane autophagosomes that engulf cytosolic components and deliver cargo to lysosomes for digestion and nutrient recycling (Ravikumar, B. et al., (2009) J. Cell Sci. 122, 1707-1711). In order to determine if autophagy was perturbed following PLD or Akt inhibitor (MK2206) (Hirai, H. et al., (2010) Mol. Cancer Ther. 9, 1956-1967) treatment, the expression levels of the well-characterized autophagy makers microtubule-associated protein 1A/1B-light chain 3 (LC3) and p62 were measured. Autophagasome number is frequently assessed by measuring conversion of cytosolic LC3-I to a membrane-associated, lipidated LC3-II which is readily measureable as a faster migrating species of LC3 during SDS-PAGE (Kabeya, Y. et al., (2000) EMBO J. 19, 5720-5728). The other marker, p62, is an LC3 and ubiquitin-binding protein, involved in the regulation of protein aggregates and is degraded by autophagy (Komatsu, M. et al., (2005) J. Cell Biol. 169, 425-434). Induction of autophagy and successful degradation of autophagosomes would thus be accompanied by a decrease in p62 levels. […] Fold change in immunoreactivity relative to vehicle control. ANOVA with Dunnett's post-hoc test was used to compare inhibitor treatment to vehicle control (**p<0.01).
To conclusively determine that flux, rather than autophagosome initiation, is regulated by PLC, LC3-II conversion in the presence of the lysosomal proton pump inhibitor bafilomycin A1, which prevents autophagosome fusion to lysosomes and inhibits degradation of autophagosomes, was measured. Thus, bafilomycin A1 is commonly used to discriminate the effects of a compound on autophagy initiation versus flux by assessing LC3-II levels in the presence of a test compound after clamping degradation of autophagosomes (Yamamoto, A. et al., (1998) Cell Struct. Funct. 23, 33-42).

PLD2-Akt interaction = molecular target: T1, PLD2-Akt interaction (Homo sapiens, UniProt P31749); experiment: In vitro protein-protein interaction assay, purified PLD2 and Akt; type: binding; conditions: purified proteins, 10 μM inhibitor in reaction mixture
T1 construct: 6xHis (N); made in house; host or cells: Sf21 insect cells (baculovirus)
T1 sequence (P31749 whole entry): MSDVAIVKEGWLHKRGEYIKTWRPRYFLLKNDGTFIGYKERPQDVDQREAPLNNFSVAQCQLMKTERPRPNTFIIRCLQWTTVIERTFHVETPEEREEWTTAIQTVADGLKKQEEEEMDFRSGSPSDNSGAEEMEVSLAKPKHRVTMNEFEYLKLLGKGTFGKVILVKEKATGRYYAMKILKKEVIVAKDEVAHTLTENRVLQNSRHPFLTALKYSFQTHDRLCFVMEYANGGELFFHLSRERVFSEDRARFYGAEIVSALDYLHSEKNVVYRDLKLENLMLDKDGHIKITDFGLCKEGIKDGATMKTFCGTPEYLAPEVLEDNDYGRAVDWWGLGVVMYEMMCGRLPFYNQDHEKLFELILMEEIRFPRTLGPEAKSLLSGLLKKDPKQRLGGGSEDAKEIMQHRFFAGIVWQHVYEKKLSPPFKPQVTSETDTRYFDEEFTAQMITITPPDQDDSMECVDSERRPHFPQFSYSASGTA
Protocol: 25 nM PLD2-PtS or PtS tag were incubated with 50 nM 6×His-Aktl for 2 h in 50 mM Tris pH 8.0, 0.01% Nonidet P-40, 150 mM NaCl, 0.5 mM EDTA, and 50 mg/mL avidin. Where indicated, 10 μM inhibitor was included in the reaction mixture. PtS-tagged proteins were captured by incubation with strep-tactin resin for 2 h.
Although proteins may co-IP from cell lysate, determining whether proteins form a direct interaction requires binding experiments with purified proteins. As described herein, recombinant Akt and PLD2 was then expressed and purified from Sf21 insect cells (FIG. 8C). […] Numbers indicate molecular weights in kilodaltons. […] Since PLD2 and Akt appear to interact directly, the PLD inhibitors were evaluated to determine whether they disrupted the protein-protein interaction as a potential mechanism by which PLD2 regulates activation of Akt in cells. As described herein, purified PLD2 and Akt were incubated in the presence of EVJ, JWJ, or the allosteric pan-Akt inhibitor, MK2206 (Hirai, H. et al., (2010) Mol. Cancer Ther. 9, 1956-1967) and proteins captured using affinity resin. […] Referring to FIG. 9B, the same procedure was used as in 9A, except 10 μM EVJ, JWJ, or Akt inhibitor MK2206 was included in the reaction mixture.

Akt = Akt membrane recruitment (membrane isolation), U87MG cells; type: cell-based, human; conditions: overnight 5 μM JWJ
Protocol: U87MG cells were seeded in 150 mm tissue culture plates at 2.6×10^6 cells/plate (4 plates per condition) and allowed to adhere overnight. The following day, cells were washed and media replaced with DMEM+indicated inhibitor or vehicle and cells were treated for up to 12 h. Cells were washed twice in 1×PBS then scraped in homogenization buffer (20 mM HEPES pH 7.4, 1 mM EDTA, 250 mM sucrose). Cells were pelleted by centrifugation at 1,000×g for 4 minutes at 4° C. […] Lysate was collected dropwise then centrifuged at 2,000×g for 10 min to pellet unbroken cells, nuclei, and heavy debris. The supernatant was subsequently centrifuged at 100,000×g for 60 min. The supernatant was saved as the cytosolic fraction and the 100,000×g pellet was washed once by resuspension in lysis buffer then centrifuged again under the same conditions.
2.5%, 10%, 17.5%, 25%, and 30% iodixanol solutions were prepared by mixing the appropriate ratios of 50% iodixanol with homogenization buffer. […]
In order to understand the mechanism by which PtdOH regulates Akt activation, it was first determined whether PtdOH and PIP3 share a binding site on Akt. […] Akt binding to PtdOH and PIP3 was then assessed using a protein-lipid overlay assay. […] Bound Akt was determined using an Akt specific antibody. […] GST-Akt PH domain fusion proteins were purified from E. coli and lipid binding was again assessed using a protein-lipid overlay.

AMPK = AMPK activation immunoblot, U87MG cells; type: cell-based, human; conditions: for AMPK activation (phosphorylation of threonine 172) / phosphorylation of acetyl-coA carboxylase (serine 79): 24 hours, 10 mM EVJ or 5 mM JWJ
Protocol: Another well-known regulator of autophagy is the adenosine monophosphate-activated protein kinase (AMPK). Changes in intracellular energy balance or metabolic stress are known to activate AMPK (Hardie, D. G. (2007) Nat. Rev. Mol. Cell Bio. 8, 774-785). AMPK serves as a metabolic checkpoint, acting to restore ATP levels through regulation of metabolic enzymes and inhibition of pro-growth anabolic pathways (Hardie, D. G. (2007) Nat. Rev. Mol. Cell Bio. 8, 774-785). […] U87MG cells were treated for 24 hours with […] before lysis and immunoblotting. AMPK activation was measured by assessing phosphorylation at threonine 172 and also by measuring activation of acetyl coenzyme A carboxylase (ACC) at serine 79.
Another AMPK substrate and component of the autophagasome initiation complex is Unc-51-like kinase 1 (ULK1). Several studies (Egan, D. F. et al., (2011) Science 331, 456-461; Kim, J. et al., (2011) Nature Cell Bio. 13, 132-141) have recently identified multiple AMPK sites on ULK1 that function to enhance initiation of autophagy. […] To determine whether the induction of autophagy through AMPK activation requires Akt, Aktl was silenced and then evaluated for effects of PLD inhibition on AMPK and ULK1 phosphorylation. Aktl was chosen to silence since Aktl phosphorylation was decreased following PLD inhibition in U87MG cells. […] U87MG cells were transfected with Aktl siRNA for 72 hours prior to cell lysis. Cells were treated with […] JWJ 24 hours prior to cell lysis.

myrAktl = experiment: Akt phosphorylation immunoblot, myrAktl U87MG cells; type: cell-based, human; conditions: overnight, serum-free DMEM; 10 μM EVJ or 5 μM JWJ
Protocol: To confirm the observed effects on autophagy and cell death following PLD inhibition in glioma cells was due to the regulation of Akt by PLD2, a stable U87MG cell line was developed to expresses a constitutively active form of Akt under the transcriptional control of the tetracycline repressor protein (Yao, F. et al., (1998) Hum. Gene Ther. 9, 1939-1950). This Akt construct contains the myristoylation sequence from Src kinase (Kohn, A. D. et al., (1996) J. Biol. Chem. 271, 31372-31378) and is constitutively membrane associated and active. Without wishing to be bound by a particular theory, if PtdOH serves to enhance membrane docking of Akt then PLD inhibition should not decrease phosphorylation of myristoylated Akt (myrAkt) since this construct bypasses lipid recruitment signals for membrane association. […] Tetracycline inducible myrAktl-expressing U87MG cells, or parental cells, were seeded into media containing 0.1 ug/ml tetracycline and protein expression induced for approximately 24 hours. […] Cells were seeded and treated as in figure A and immunoblotted for phosphorylated and total AMPK. AMPK activation was quantitated by densitometric quantification of the phospho-AMPK band over the total AMPK band. Fold changes were calculated by normalizing the DMSO condition to 1 for each cell line. […] Referring to FIG. 23B, parental or myrAktl U87MG cells were treated with the indicated inhibitors as in 23A overnight before blotting for phosphorylated and total Akt.

PLD = experiment: Endogenous PLD activity assay (PtdBuOH) in U87MG cells; type: cell-based, human
Protocol: Data is presented as the ratio of the predominant phosphatidylbutanol peaks to the internal standard. To generate concentration response curves, U87MG cells were serum starved for approximately 24 hours. Cells were treated with the indicated concentration of PLD inhibitor for 15 minutes prior to addition of n-butanol containing media and phospolipid extraction.
Cells were pretreated with inhibitors 30 min prior to measurement of PLD activity. Data is presented as the percent activity remaining after PLD inhibitor treatment relative to control.

Compound	LC3-II levels relative to vehicle control (LC3 and p62)	accumulation of LC3-II in the presence of bafilomycin A1 (LC3 and p62)	PLD2-Akt interaction (PLD2-Akt interaction)	AMPK activation (phosphorylation of threonine 172) (AMPK)	phosphorylation of acetyl-coA carboxylase (serine 79) (AMPK)	phosphorylated Akt in myrAktl U87MG cells (myrAktl)	other results
CO/C1=C\C(C)=C\[C@@H](C)[C@@H](O)[C@@H](C)C/C(C)=C/C=C/[C@H](OC)[C@@H]([C@@H](C)[C@@H](O)[C@H](C)[C@@]2(O)C[C@@H](O)[C@H](C)[C@@H](C(C)C)O2)OC1=O [Bafilomycin A1]	increased LC3-II levels relative to vehicle control						
NC1(c2ccc(-c3nc4ccn5c(=O)[nH]nc5c4cc3-c3ccccc3)cc2)CCC1 [MK2206]	increased LC3-II levels relative to vehicle control	no additional accumulation of LC3-II	disrupted the PLD2-Akt interaction				
O=C(NCCN1CCC2(CC1)C(=O)NCN2c1cccc(F)c1)c1ccc2ccccc2c1 [No. 1, N-(2-(1-(3-fluorophenyl)-4-oxo-1,3,8-triazaspiro[4.5]decan-8-yl)ethyl)-2-naphthamide]		no additional accumulation of LC3-II	detected even in the presence of PLD inhibitors	observed to increase	increased phosphorylation of acetyl-coA carboxylase	failed to reduce levels of phosphorylated Akt	membrane recruitment of Akt (Akt): diminished; AMPK or ULK1 phosphorylation when Aktl is silenced (AMPK; Aktl siRNA 72 hours, 5 mM JWJ 24 hours): does not appear to increase AMPK or ULK1 phosphorylation more than DMSO control
C[C@@H](CN1CCC(n2c(=O)[nH]c3cc(Br)ccc32)CC1)NC(=O)[C@@H]1C[C@@H]1c1ccccc1 [No. 2, (1R,2S)—N-((S)-1-(4-(5-bromo-2-oxo-2,3-dihydro-1H-benzo[d]imidazol-1-yl)piperidin-1-yl)propan-2-yl)-2-phenylcyclopropane carboxamide]		no additional accumulation of LC3-II	detected even in the presence of PLD inhibitors	observed to increase	increased phosphorylation of acetyl-coA carboxylase	failed to reduce levels of phosphorylated Akt	IC50 (PLD; U87MG cells, serum withdrawn 24 h, inhibitor pretreatment 30 min, read-out: IC50, attenuation of PLD activity following serum-withdrawal): ~500 nM
CCC(=O)N1CCN(c2ccc(-n3c(=O)ccc4cnc5ccc(-c6cnc7ccccc7c6)cc5c43)cc2C(F)(F)F)CC1 [Torinl, reference compound]						decreased phosphorylation of myrAktl	
C[C@@H](CN1CCC(n2c(=O)[nH]c3cc(Cl)ccc32)CC1)NC(=O)c1ccc2ccccc2c1 [VU0155069, reference compound]							PtdBuOH production (PLD; U87MG glioblastoma cells, FIG. 28B): blocks PtdBuOH production
